Values quoted from earlier work, collected in patent US20130236944A1, “METHODS FOR THE INACTIVATION OF ANTIBIOTICS” (priority 2011, published 2013).

Settings: after 180 days; Hektoen et al. (1995)

Row | SMILES | degradation in marine sediments
1 | CCn1cc(C(=O)O)c(=O)c2cc3c(cc21)OCO3 [oxolanic acid] | no degradation
2 | CN(C)[C@@H]1C(O)=C(C(N)=O)C(=O)[C@@]2(O)C(O)=C3C(=O)c4c(O)cccc4[C@@](C)(O)[C@H]3[C@H](O)[C@@H]12 [oxytetracycline] | no degradation
